In this test the target is AdhD (AdhD-SP) (Pyrococcus furiosus, UniProt Q8TZM9). Put plainly: NADH disappearance at […] nm, Michaelis-Menten fit. Format: biochemical. To be noted: free enzyme; NADH (A340 ~1.8); 100 mM sodium phosphate pH 6.2; 50 °C.

In the case of `CC(=O)C(C)O` (stereo not shown) [acetoin], the KM result is “The dependence of the reaction rate on acetoin followed Michaelis-Menten kinetics”.
